Experimental data published in patent US20250304649A1, “SCN1B MIMETIC PEPTIDES AND USES THEREOF” (Virginia Tech Intellectual Properties, Inc., priority 2022, published 2025).
Entries after “also recorded” stand apart in the source; their conditions may differ. Positions of bridges follow the written chain, without caps; N, C: chain ends. No end group written: not given here.

Columns and labels:
[1] = system: 1610β1 cells (β1/SCN1B-mediated cell adhesion); assay: Electric cell-substrate impedance sensing (ECIS) of cell adhesion in 1610β1 monolayers; format: cell-based, Chinese hamster; settings: for resistance compared to vehicle over the entire time course / resistance compared to DMSO vehicle at 5 hours / resistance compared to DMSO vehicle at (up to) 20 hours / resistance compared to DMSO vehicle at 40 hours: 10 μM; for resistance compared to vehicle over the entire time course: 40 hour time course; for resistance compared to DMSO vehicle at 5 hours / resistance compared to DMSO vehicle at (up to) 20 hours / resistance compared to DMSO vehicle at 40 hours: single treatment at plating; for acute de-adhesion effects: dimerized peptides, ECIS time course
Text: FIGS. 3A-3E show βadp1 binding and identification of βadp1 derived smaller peptide fragments with similar function. […] Positive and negatively charged moieties on the adhesion surface of the β1 Ig loop are shown in red and blue (as represented in greyscale), respectively. […] Peptides towards the carboxyl terminus of βadp1, especially those incorporating hydrophobic leucine residues, show the most adhesion reducing activity. Based on the ECIS time course data, and predictions from molecular modeling of likely binding in the hydrophobic pocket β1/SCN1B Ig domain binding surface, the sequence LQLEED (SEQ ID NO: 4) was selected as a short peptide candidate drug molecule.
In this Example to evaluate the long term effects (effects after more than 2 hours post treatment) of βadp1 and derivatives on β1 cell adhesion, electric cell-substrate impedance sensing (ECIS) was employed. ECIS measures the impedance of electric current. 4000 Hz is the recommended frequency for measuring changes in impedance between cells, assaying intercellular adhesion levels, as mediated by β1. […] To assist in focusing on the active sequence of βadp1 used to create the other peptides in this disclosure, ECIS experiments were completed using multiple small sequences as shown in FIGS. 3A-3E. From this, and in combination with the in silico experiments, it was determined that LQLEED (SEQ ID NO: 4) was the optimal sequence. […] For the other dimerized peptides, ERF residues were included on the c-terminal end of the LQLEED (SEQ ID NO: 4) peptide because residue R85 in SCN1B is associated with atrial fibrillation. Cells were plated in 8 well plates lined with 40 electrodes and treated with a 10 μM concentration of βadp1 in a final concentration of 0.1% DMSO at the time of plating or DMSO vehicle.
βadp1 is a peptide mimetic of a 20 amino acid (aa) sequence from the immunoglobulin (Ig) domain of the voltage gated sodium channel (VGSC) β1 subunit involved in adhesive interactions. […] Applicant synthesized a dimerized variant of the 20 aa βadp1 (FIG. 1) and tested it in monolayers of 1610 Chinese Hamster Lung cells stably expressing the β1 subunit (1610ß1) using electric cell substrate impedance sensing (ECIS) to determine whether it acted as an agonist that promoted β1-mediated adhesion.

[2] = system: β1 protein (SCN1B) in 1610β1 cells; assay: Confocal immunofluorescence of β1 abundance and Biotin-βadp1 uptake in 1610β1 cells; format: cell-based, Chinese hamster; settings: for upregulation of β1 protein 48 hours after treatment: 50 μM; for upregulation of β1 protein 48 hours after treatment / β1 abundance (immunolabeling) at 48 hours compared to DMSO treated cells: FIG. 7; for β1 abundance (immunolabeling) at 48 hours compared to DMSO treated cells: 10 μM; for upregulation of β1 protein 48 hours after treatment / β1 abundance (immunolabeling) at 48 hours compared to DMSO treated cells / β1 abundance at cell-cell borders / in the membrane: 48 hours; for β1 abundance at cell-cell borders / in the membrane: FIG. 7D-7E
Description: Cells were then allowed to grow for 1-48 hours, after which they were fixed with 4% paraformaldehyde. […] White scale bar: 10 μm
FIGS. 7A-7D show 1610β1 cells treated for 48 hours with 10 μM concentrations of DMSO or βadp1 derived peptides (FIG. 7A) 0.1% DMSO, (FIG. 7B) βadp1, (FIG. 7C) LQLEED (SEQ ID NO: 4), (FIG. 7D) βS2L.
Next, the abundance of β1 protein was evaluated using confocal microscopy immunofluorescence (IF). 1610β1 cells were plated in 12 well plates on lysine coated coverslips and allowed to grow for 48 hours. Cells were then treated with a 50 μM concentration of βadp1, βS2L, βS2C, or LQLEED (SEQ ID NO: 4) or βadp1 conjugated with a Biotin molecule (B-βadp1) solubilized in a final concentration of 0.1% dimethyl sulfoxide (DMSO). Controls for the experiment were cells treated with only 0.1% DMSO vehicle. Cells were then fixed in 4% paraformaldehyde and stained with an antibody against the extracellular domain of β1 (Virginia Tech) and a streptavidin-Alexa647 (Invitrogen) conjugate to stain B-βadp1.
Applicant undertook immunolabeling studies to further probe the effect of the mimetic peptides on 1610β1 cells over time courses of up to 2 days. […] Prompted by this observation we examined what effects of 10 μM concentrations of LQLEED (SEQ ID NO: 4) and βS2L on β1 immunolabeling at or 48 hours over the same time course.

[3] = system: parental cell line of 1610 cells expressing negligible levels of β1; assay: ECIS in parental 1610 cells; format: cell-based, Chinese hamster
[4] = system: 1610β1 cells (β1/SCN1B-mediated cell adhesion); assay: Electric cell-substrate impedance sensing (ECIS) of cell adhesion in 1610β1 monolayers; format: cell-based, Chinese hamster
[5] = system: regulated intramembrane proteolysis (RIP) of β1 in 1610β1 cells; assay: Western blot of full-length β1 and C-terminal fragment (regulated intramembrane proteolysis) in 1610β1 cells; format: cell-based, Chinese hamster; settings: for CTF levels on immunoblots, peptide alone: without DAPT
Description: (FIG. 8A) Representative Western blot showing 0.1% DMSO, 50 μM βadp1, 1 μM DAPT, and 50 μM+1 μM DAPT treatments at 6 hours, 24 hours, and 48 hours of treatment. Cells were plated and treated simultaneously, and then lysate was collected at the indicated 6, 24, or 48 hours. Detection of the β1 subunit was done using a c-terminal antibody “Na Channel β1 Subunit (D4Z2N) Rabbit mAb #13950” (Cell Signaling Technologies). This allowed for labeling of both the full length β1 protein (37 kD) and the C-terminal fragment (CTF) (19 kD). […] (FIG. 8B) Quantification of the 37 kD full-length β1 protein at 6, 24, and 48 hours. All results are normalized to DMSO treatment at each timepoint and then shown as a ratio of DAPT+βadp1/DAPT to account for the DAPT treatment in each. […] (FIG. 8C) Quantification of the 19 kD CTF of β1. All results are normalized to DMSO treatment at each timepoint and then shown as a ratio of DAPT+βadp1/DAPT to account for the DAPT treatment in each.
β1 abundance was further examined using Western blotting (WB) at time points of 6, 24, and 48 hours after initial βadp1 treatment. Cells were plated in 35 mm cell culture dishes and treated with 50 μM βadp1 or βS2L solubilized in a final concentration of 0.1% DMSO at the time of plating. The control was DMSO vehicle. To determine whether βadp1 affects the RIP of β1, cells were also treated with 1 μM DAPT, an inhibitor of γ-secretase, to cause an accumulation of the intermediate substrate in the RIP of β1, the CTF. Whole cell lysate was collected and run on stain free gels and transferred to a Polyvinylidene difluoride (PVDF) membrane. Membranes were labeled with an antibody against the c-terminal domain of β1 (Cell Signaling Technologies).
β1 has been reported to undergo a process of […] intramembrane proteolysis (RIP) by BACE1 and γ-secretase, ultimately resulting in the production of a soluble intracellular domain (ICD) that is translocated to the nucleus, with correlated effects on gene transcription. Applicant sought to determine if the β1 targeting peptides affect the RIP process in 1610β1 cells and whether any effect relates to changes in the distribution and abundance of β1 immunolabeling we observed in this model. First, to confirm that β1 underwent RIP in 1610β1 cells, Applicant treated cells with the y-secretase inhibitor DAPT. In the presence of DAPT, it was noted that the 19 kD Carboxyl-Terminal Fragment (CTF) accumulated in Western blots from cells sampled at 6, 24 and 48 hours following initiation of treatment, similar to results published by others in CHL cells and MDA-MB-231 breast cancer cells (FIG. 12A). Without DAPT treatment the 19 kD CTF was virtually non-detectable at any of the time points sampled (FIG. 12A). Next, Applicant co-treated cells with DAPT in the presence of βadp1 or βS2L. […]

[6] = system: Isolated guinea pig hearts; settings: cited from earlier work
[7] = system: β1-mediated adhesion and gap junction-associated VGSC activity in cultured cells; settings: 1 to 2 hours; cited from earlier work
[8] = isolated guinea pig hearts treated acutely

Molecule	resistance compared to vehicle over the entire time course [1]	resistance compared to DMSO vehicle at 5 hours ([1]; 5 hours)	resistance compared to DMSO vehicle at (up to) 20 hours [1]	acute de-adhesion effects [1]	upregulation of β1 protein 48 hours after treatment [2]	resistance compared to DMSO vehicle at 40 hours [1]	β1 abundance (immunolabeling) at 48 hours compared to DMSO treated cells [2]	CTF levels on immunoblots, peptide alone [5]	β1 abundance at cell-cell borders / in the membrane [2]	further results
CLQLEEDERF-G-LQLEEDERFC (CLQLEEDERFGLQLEEDERFC; disulfide 1-21 (inferred)) [βS2C, dimeric peptide with NT and CT cysteines, cyclizable via disulfide bonding]	increased resistance throughout the time course	increase resistance; also recorded: significantly elevated over vehicle control	increased resistance	no acute de-adhesion effects detectable	upregulation of β1 protein	–	–	–	–	–
FVKILRYENEVLQLEEDERGFVKILRYENEVLQLEEDER [Db1-βadp1, dimerized version of βadp1 with a glycine linker]	–	–	–	–	–	–	–	–	–	intercellular resistance in parental 1610 cells [3]: did not result in increased intercellular resistance; concentration dependence of the increase in resistance ([4]; 100 μM versus 50 μM, 24 hours): concentration dependent effect; also recorded: higher for 100 μM Db1-βadp1 versus the 50 μM treatment; resistance compared to DMSO/vehicle control ([4]; Db1-βadp1 100 μM and 50 μM, over 24 hours of treatment, n=2, FIG. 4): increased resistance
FVKILRYENEVLQLEEDERF [βadp1]	–	decrease resistance	decrease resistance; also recorded: significantly decreased resistance; also recorded: significant decreases in resistance	–	–	no significant difference; also recorded: effects of βadp1 had reversed; also recorded: no longer significantly below those of controls	increase in β1 abundance	Neither βadp1 or βS2L alone appeared to have consistent effects	–	ECIS-assayed adhesion ([1]; 10 and 100 μM treatments): significant decreases in ECIS-assayed adhesion; normalized resistance of monolayers (marker of cell adhesion mediated by β1/SCN1B) relative to control ([1]; 1610 cells exogenously expressing β1/SCN1B, over 20 hours, FIG. 3D): significantly reduces normalized resistance; β1 levels at 48 hours ([2]; cells monitored up to 48 hours from the initial treatment): notably increased; regulated intramembrane proteolysis (RIP) of β1 ([5]; inferred from CTF accumulation with DAPT): increasing the amount of RIP that β1 undergoes; also recorded: increases the RIP of β1; perinexal adhesion at early time-points ([6]; <2 hours): perinexal de-adhesion; conduction velocity [6, 8]: decreased conduction velocity; perinexus width [6, 8]: widened perinexus; gap junction-associated VGSC activity [7]: inhibits; β1-mediated adhesion [7]: inhibits β1-mediated adhesion
LQLEED [short monomeric peptide towards the carboxyl terminus of βadp1]	–	decrease resistance; also recorded: decreased levels of intercellular resistance	decreased resistance; also recorded: significant decreases in resistance	–	–	–	increase in β1 abundance; also recorded: appeared to increase	–	occasional evidence of increased intensity of immunolabeling signal at cell borders	–
C[C@H](NC(=O)Cc1cc(F)cc(F)c1)C(=O)N[C@H](C(=O)OC(C)(C)C)c1ccccc1 [DAPT, reference compound]	–	–	–	–	–	–	–	–	–	accumulation of the 19 kD C-terminal fragment (CTF) of β1 with DAPT ([5]; 1 μM DAPT, 6, 24 and 48 hours, versus no DAPT): accumulation of the 19KD CTF; also recorded: accumulated
LQLEEDERF-G-LQLEEDERF (LQLEEDERFGLQLEEDERF) [βS2L]	increased resistance throughout the time course; also recorded: significantly increasing resistance	increase resistance; also recorded: significantly elevated over vehicle control	increase resistance	no acute de-adhesion effects detectable	upregulation of β1 protein	continues to increase resistance	increase in β1 abundance; also recorded: cell-wide increases in β1 immunolabeling	Neither βadp1 or βS2L alone appeared to have consistent effects	increase the 1 abundance at cell-cell borders; also recorded: increase the β1 present in the membrane; also recorded: distinctive increase in signal at cell borders	resistance relative to that after the LQLEED inhibitory monomer ([1]; 5 hours): 5-6 fold
